Data from US12398097B2, “WDR5-MYC inhibitors” (Vanderbilt University, priority 2019, dated 2025).
pKi: −log10 of the molar value.

Target: WDR5 (Homo sapiens, UniProt P61964)
Assay: Competition-based fluorescence polarization anisotropy assay
Conditions: binding to WDR5; displacement of FITC-labeled small molecule probe (analogous to Example J2 or HCH-25) or peptide probe FITC-AHx-SEEEIDVVSV; pH 6.0; Ki converted from IC50
In short: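 Ki values derive from displacement of either a fluorescent small-molecule probe or a FITC-peptide probe from WDR5, monitored by fluorescence polarization. Assay run at pH 6.0 in 200 mM phosphate with 300 mM NaCl, 0.5 mM TCEP and 0.1% Chaps.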

Question: How did the pKi turn out when `O=C(O)c1cc(OC(F)(F)F)cc(NS(=O)(=O)c2cc(Br)cc(CCCO)c2O)c1O` [HCH-27, 3-((5-Bromo-2-hydroxy-3-(3-hydroxypropyl)phenyl)sulfonamido)-2-hydroxy-5-(trifluoromethoxy)benzoic acid] was run?
Answer: 6.40

Question: How did the pKi turn out when `CCC(O)CNC(=O)c1cc(OC(F)(F)F)cc(NS(=O)(=O)c2cc(Br)cc(F)c2O)c1O` (centres unmarked) [HCH-39, 3-((5-Bromo-3-fluoro-2-hydroxyphenyl)sulfonamido)-2-hydroxy-N-(2-hydroxybutyl)-5-(trifluoromethoxy)benzamide] was run?
Answer: 6.49

Question: With `CCc1cc(Br)cc(S(=O)(=O)Nc2cc(OC(F)(F)F)cc(C(=O)NCC(O)CC)c2O)c1O` (centres unmarked) [HCH-40, 3-((5-Bromo-3-ethyl-2-hydroxyphenyl)sulfonamido)-2-hydroxy-N-(2-hydroxybutyl)-5-(trifluoromethoxy)benzamide] as the compound, how does the pKi read?
Answer: 6.46

Question: `CCC(O)CNC(=O)c1cc(OC(F)(F)F)cc(NS(=O)(=O)c2cc(Br)cc(Cl)c2O)c1O` (centres unmarked) [HCH-41, 3-((5-Bromo-3-chloro-2-hydroxyphenyl)sulfonamido)-2-hydroxy-N-(2-hydroxybutyl)-5-(trifluoromethoxy)benzamide] was tested. Which pKi did it give?
Answer: 6.64

Question: `O=C(NCC(O)c1ccsc1)c1cc(OC(F)(F)F)cc(NS(=O)(=O)c2cc(Br)ccc2O)c1O` (centres unmarked) [HCH-43, 3-((5-Bromo-2-hydroxyphenyl)sulfonamido)-2-hydroxy-N-(2-hydroxy-2-(thiophen-3-yl)ethyl)-5-(trifluoromethoxy)benzamide] was tested. Which pKi did it give?
Answer: 6.37

Question: How did the pKi turn out when `CC(O)(CNC(=O)c1cc(OC(F)(F)F)cc(NS(=O)(=O)c2cc(Br)ccc2O)c1O)C1CC1` (centres unmarked) [HCH-44, 3-((5-Bromo-2-hydroxyphenyl)sulfonamido)-N-(2-cyclopropyl-2-hydroxypropyl)-2-hydroxy-5-(trifluoromethoxy)benzamide] was run?
Answer: 6.37

Question: How did the pKi turn out when `CCC(C)(O)CNC(=O)c1cc(OC(F)(F)F)cc(NS(=O)(=O)c2cc(Br)ccc2O)c1O` (centres unmarked) [HCH-45, 3-((5-Bromo-2-hydroxyphenyl)sulfonamido)-2-hydroxy-N-(2-hydroxy-2-methylbutyl)-5-(trifluoromethoxy)benzamide] was run?
Answer: 6.36

Question: With `CNC(=O)C(CO)NC(=O)c1cc(OC(F)(F)F)cc(NS(=O)(=O)c2cc(Br)ccc2O)c1O` (centres unmarked) [HCH-46, 3-((5-Bromo-2-hydroxyphenyl)sulfonamido)-2-hydroxy-N-(3-hydroxy-1-(methylamino)-1-oxopropan-2-yl)-5-(trifluoromethoxy)benzamide] as the compound, how does the pKi read?
Answer: 6.35

Question: How did the pKi turn out when `NC(=O)[C@H](CO)NC(=O)c1cc(OC(F)(F)F)cc(NS(=O)(=O)c2cc(Br)ccc2O)c1O` [HCH-47, (S)—N-(1-Amino-3-hydroxy-1-oxopropan-2-yl)-3-((5-bromo-2-hydroxyphenyl)sulfonamido)-2-hydroxy-5-(trifluoromethoxy)benzamide] was run?
Answer: 6.59

Question: `NC(=O)C(NC(=O)c1cc(OC(F)(F)F)cc(NS(=O)(=O)c2cc(Br)ccc2O)c1O)c1ccccn1` (centres unmarked) [HCH-49, N-(2-Amino-2-oxo-1-(pyridin-2-yl)ethyl)-3-((5-bromo-2-hydroxyphenyl)sulfonamido)-2-hydroxy-5-(trifluoromethoxy)benzamide] was tested. Which pKi did it give?
Answer: 6.49

Question: How did the pKi turn out when `CN1CCC(O)(CNC(=O)c2cc(OC(F)(F)F)cc(NS(=O)(=O)c3cc(Br)cc(Cl)c3O)c2O)CC1` [HCH-50, 3-((5-Bromo-3-chloro-2-hydroxyphenyl)sulfonamido)-2-hydroxy-N-((4-hydroxy-1-methylpiperidin-4-yl)methyl)-5-(trifluoromethoxy)benzamide] was run?
Answer: 6.68

Question: `CC(O)(CNC(=O)c1cc(OC(F)(F)F)cc(NS(=O)(=O)c2cc(Br)cc(Cl)c2O)c1O)C1CC1` (centres unmarked) [HCH-51, 3-((5-Bromo-3-chloro-2-hydroxyphenyl)sulfonamido)-N-(2-cyclopropyl-2-hydroxypropyl)-2-hydroxy-5-(trifluoromethoxy)benzamide] was tested. Which pKi did it give?
Answer: 6.92

Question: With `CC(C)C(O)CNC(=O)c1cc(OC(F)(F)F)cc(NS(=O)(=O)c2cc(Br)cc(Cl)c2O)c1O` (centres unmarked) [HCH-52, 3-((5-Bromo-3-chloro-2-hydroxyphenyl)sulfonamido)-2-hydroxy-N-(2-hydroxy-3-methylbutyl)-5-(trifluoromethoxy)benzamide] as the compound, how does the pKi read?
Answer: 6.85

Question: How did the pKi turn out when `O=C(NCC1(O)CCOCC1)c1cc(OC(F)(F)F)cc(NS(=O)(=O)c2cc(Br)cc(Cl)c2O)c1O` [HCH-53, 3-((5-Bromo-3-chloro-2-hydroxyphenyl)sulfonamido)-2-hydroxy-N-((4-hydroxytetrahydro-2H-pyran-4-yl)methyl)-5-(trifluoromethoxy)benzamide] was run?
Answer: 6.77

Question: `O=C(NC1COC1)c1cc(OC(F)(F)F)cc(NS(=O)(=O)c2cc(Br)cc(Cl)c2O)c1O` [HCH-54, 3-((5-Bromo-3-chloro-2-hydroxyphenyl)sulfonamido)-2-hydroxy-N-(oxetan-3-yl)-5-(trifluoromethoxy)benzamide] was tested. Which pKi did it give?
Answer: 6.85

Question: How did the pKi turn out when `O=C(NC1CC(F)(F)C1)c1cc(OC(F)(F)F)cc(NS(=O)(=O)c2cc(Br)ccc2O)c1O` [HCH-55, 3-((5-Bromo-2-hydroxyphenyl)sulfonamido)-N-(3,3-difluorocyclobutyl)-2-hydroxy-5-(trifluoromethoxy)benzamide] was run?
Answer: 6.46

Question: How did the pKi turn out when `NC(=O)[C@H](CO)NC(=O)c1cc(OC(F)(F)F)cc(NS(=O)(=O)c2cc(Br)cc(Cl)c2O)c1O` [HCH-56, (S)—N-(1-Amino-3-hydroxy-1-oxopropan-2-yl)-3-((5-bromo-3-chloro-2-hydroxyphenyl)sulfonamido)-2-hydroxy-5-(trifluoromethoxy)benzamide] was run?
Answer: 6.72

Question: With `CC(NC(=O)c1cc(OC(F)(F)F)cc(NS(=O)(=O)c2cc(Br)cc(Cl)c2O)c1O)C(N)=O` (centres unmarked) [HCH-57, N-(1-Amino-1-oxopropan-2-yl)-3-((5-bromo-3-chloro-2-hydroxyphenyl)sulfonamido)-2-hydroxy-5-(trifluoromethoxy)benzamide] as the compound, how does the pKi read?
Answer: 6.82

Question: How did the pKi turn out when `CCc1cc(Br)cc(S(=O)(=O)Nc2cc(Cl)cc(C(=O)NC3COC3)c2O)c1O` [HCH-58, 3-((5-Bromo-3-ethyl-2-hydroxyphenyl)sulfonamido)-5-chloro-2-hydroxy-N-(oxetan-3-yl)benzamide] was run?
Answer: 6.34

Question: With `CCc1cc(Br)cc(S(=O)(=O)Nc2cc(Cl)cc(C(=O)NC(C)C(N)=O)c2O)c1O` (centres unmarked) [HCH-59, N-(1-Amino-1-oxopropan-2-yl)-3-((5-bromo-3-ethyl-2-hydroxyphenyl)sulfonamido)-5-chloro-2-hydroxybenzamide] as the compound, how does the pKi read?
Answer: 6.47

Question: With `COC1CC(NC(=O)c2cc(OC(F)(F)F)cc(NS(=O)(=O)c3cc(Br)cc(Cl)c3O)c2O)C1` (centres unmarked) [HCH-60, 3-((5-Bromo-3-chloro-2-hydroxyphenyl)sulfonamido)-2-hydroxy-N-(3-methoxycyclobutyl)-5-(trifluoromethoxy)benzamide] as the compound, how does the pKi read?
Answer: 6.62

Question: How did the pKi turn out when `O=C(NC1CC(O)C1)c1cc(OC(F)(F)F)cc(NS(=O)(=O)c2cc(Br)cc(Cl)c2O)c1O` (centres unmarked) [HCH-61, 3-((5-Bromo-3-chloro-2-hydroxyphenyl)sulfonamido)-2-hydroxy-N-(3-hydroxycyclobutyl)-5-(trifluoromethoxy)benzamide] was run?
Answer: 6.62

Question: `NC(=O)c1cc(OC(F)(F)F)cc(NS(=O)(=O)c2cc(Br)cc(Cl)c2O)c1O` [HCH-62, 3-((5-Bromo-3-chloro-2-hydroxyphenyl)sulfonamido)-2-hydroxy-5-(trifluoromethoxy)benzamide] was tested. Which pKi did it give?
Answer: 6.48

Question: With `CNC(=O)c1cc(OC(F)(F)F)cc(NS(=O)(=O)c2cc(Br)cc(Cl)c2O)c1O` [HCH-63, 3-((5-Bromo-3-chloro-2-hydroxyphenyl)sulfonamido)-2-hydroxy-N-methyl-5-(trifluoromethoxy)benzamide] as the compound, how does the pKi read?
Answer: 6.70

Question: With `N#CC1(c2ccc(O)c(NS(=O)(=O)c3cc(Br)ccc3O)c2)CCCC1` [JDM-06-030A, 5-Bromo-N-(5-(1-cyanocyclopentyl)-2-hydroxyphenyl)-2-hydroxybenzenesulfonamide] as the compound, how does the pKi read?
Answer: 6.21

Question: `N#CC1(c2ccc(O)c(NS(=O)(=O)c3cc(Br)ccc3O)c2)CCC1` [JDM-06-030B, 5-Bromo-N-(5-(1-cyanocyclobutyl)-2-hydroxyphenyl)-2-hydroxybenzenesulfonamide] was tested. Which pKi did it give?
Answer: 6.54

Question: How did the pKi turn out when `N#CC1(c2ccc(O)c(NS(=O)(=O)c3cc(Br)ccc3O)c2)CCCCC1` [JDM-06-030C, 5-Bromo-N-(5-(1-cyanocyclohexyl)-2-hydroxyphenyl)-2-hydroxybenzenesulfonamide] was run?
Answer: 6.64

Question: `O=S(=O)(Nc1cc(S(F)(F)(F)(F)F)ccc1O)c1cc(Br)ccc1O` [JDM-08-142A, 5-Bromo-2-hydroxy-N-(2-hydroxy-5-(pentafluorosulfanyl)phenyl)benzenesulfonamide] was tested. Which pKi did it give?
Answer: 6.96

Question: With `O=S(=O)(Nc1cc(C2(C(F)(F)F)CC2)ccc1O)c1cc(Br)ccc1O` [JDM-09-131, 5-Bromo-2-hydroxy-N-(2-hydroxy-5-(1-(trifluoromethyl)cyclopropyl)phenyl)benzenesulfonamide] as the compound, how does the pKi read?
Answer: 6.26

Question: How did the pKi turn out when `N#CC1(c2ccc(O)c(NS(=O)(=O)c3cc(Br)ccc3O)c2)CC1` [JDM-10-107, 5-Bromo-N-(5-(1-cyanocyclopropyl)-2-hydroxyphenyl)-2-hydroxybenzenesulfonamide] was run?
Answer: 6.07

Question: How did the pKi turn out when `O=S(=O)(Nc1cc(C2CC2)ccc1O)c1cc(Br)ccc1O` [JDM-10-108A, 5-Bromo-N-(5-cyclopropyl-2-hydroxyphenyl)-2-hydroxybenzenesulfonamide] was run?
Answer: 6.09

Question: `COc1ccc(Br)cc1S(=O)(=O)Nc1cc(Cl)cc([N+](=O)[O-])c1O` [NE1, 5-Bromo-N-(5-chloro-2-hydroxy-3-nitrophenyl)-2-methoxybenzenesulfonamide] was tested. Which pKi did it give?
Answer: 5.75

Question: With `COc1ccc(Cl)cc1S(=O)(=O)Nc1cc(Cl)cc([N+](=O)[O-])c1O` [NE2, 5-Chloro-N-(5-chloro-2-hydroxy-3-nitrophenyl)-2-methoxybenzenesulfonamide] as the compound, how does the pKi read?
Answer: 5.30

Question: With `O=[N+]([O-])c1cc(Cl)cc(NS(=O)(=O)c2cc(Br)ccc2O)c1O` [NE6, 5-Bromo-N-(5-chloro-2-hydroxy-3-nitrophenyl)-2-hydroxybenzenesulfonamide] as the compound, how does the pKi read?
Answer: 4.91

Question: How did the pKi turn out when `O=[N+]([O-])c1cc(Cl)cc(NS(=O)(=O)c2cc(Br)cc3c2OCC3)c1O` [NE7, 5-Bromo-N-(5-chloro-2-hydroxy-3-nitrophenyl)-2,3-dihydrobenzofuran-7-sulfonamide] was run?
Answer: 5.95
